From ChEMBL document CHEMBL3102755, “Diphenylpropane Derivatives as Agonist of PPAR Nuclear Receptors” (ACS Med Chem Lett, 2013)
The source made the active and inactive calls. The calls are words filed in the database; no cut-off is given here.

Key:
[1] = biological target: T1, Peroxisome proliferator-activated receptor gamma (Homo sapiens, UniProt P37231); test: Agonist activity at human PPARgamma ligand binding domain expressed in monkey COS7 cells cotransfected with Gal4 by luciferase reporter gene assay; format: cell-based, COS-7
T1 sequence (P37231 whole entry): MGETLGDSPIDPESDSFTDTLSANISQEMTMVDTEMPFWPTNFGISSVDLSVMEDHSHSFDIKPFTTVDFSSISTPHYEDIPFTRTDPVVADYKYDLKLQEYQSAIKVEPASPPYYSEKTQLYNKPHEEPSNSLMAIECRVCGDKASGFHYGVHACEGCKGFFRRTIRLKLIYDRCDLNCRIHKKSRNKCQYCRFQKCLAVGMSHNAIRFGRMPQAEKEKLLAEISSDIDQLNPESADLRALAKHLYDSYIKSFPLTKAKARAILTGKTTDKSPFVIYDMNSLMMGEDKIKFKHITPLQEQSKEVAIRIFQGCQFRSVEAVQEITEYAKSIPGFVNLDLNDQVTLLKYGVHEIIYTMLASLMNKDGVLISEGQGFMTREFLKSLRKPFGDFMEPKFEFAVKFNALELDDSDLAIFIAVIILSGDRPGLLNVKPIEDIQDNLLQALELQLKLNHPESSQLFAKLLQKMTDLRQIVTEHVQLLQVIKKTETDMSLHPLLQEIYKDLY

[2] = biological target: T2, Peroxisome proliferator-activated receptor delta (Homo sapiens, UniProt Q03181); test: Agonist activity at human PPARdelta ligand binding domain expressed in monkey COS7 cells cotransfected with Gal4 by luciferase reporter gene assay; format: cell-based, COS-7
T2 sequence (Q03181 whole entry): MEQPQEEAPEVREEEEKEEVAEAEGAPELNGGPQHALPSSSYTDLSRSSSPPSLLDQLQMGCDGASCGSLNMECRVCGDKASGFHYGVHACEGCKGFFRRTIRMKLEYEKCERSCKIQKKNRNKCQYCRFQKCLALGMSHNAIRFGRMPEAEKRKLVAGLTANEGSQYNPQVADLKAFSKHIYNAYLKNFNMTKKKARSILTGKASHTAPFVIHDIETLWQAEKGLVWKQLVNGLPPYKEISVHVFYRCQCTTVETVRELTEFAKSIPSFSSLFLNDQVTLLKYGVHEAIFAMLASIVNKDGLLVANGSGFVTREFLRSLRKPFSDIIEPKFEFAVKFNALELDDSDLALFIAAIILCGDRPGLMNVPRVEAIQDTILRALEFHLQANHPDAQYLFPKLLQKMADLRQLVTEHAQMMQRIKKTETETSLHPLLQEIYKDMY

[3] = biological target: T3, Peroxisome proliferator-activated receptor alpha (Homo sapiens, UniProt Q07869); test: Agonist activity at human PPARalpha ligand binding domain expressed in monkey COS7 cells cotransfected with Gal4 by luciferase reporter gene assay; format: cell-based, COS-7
T3 sequence (Q07869 whole entry): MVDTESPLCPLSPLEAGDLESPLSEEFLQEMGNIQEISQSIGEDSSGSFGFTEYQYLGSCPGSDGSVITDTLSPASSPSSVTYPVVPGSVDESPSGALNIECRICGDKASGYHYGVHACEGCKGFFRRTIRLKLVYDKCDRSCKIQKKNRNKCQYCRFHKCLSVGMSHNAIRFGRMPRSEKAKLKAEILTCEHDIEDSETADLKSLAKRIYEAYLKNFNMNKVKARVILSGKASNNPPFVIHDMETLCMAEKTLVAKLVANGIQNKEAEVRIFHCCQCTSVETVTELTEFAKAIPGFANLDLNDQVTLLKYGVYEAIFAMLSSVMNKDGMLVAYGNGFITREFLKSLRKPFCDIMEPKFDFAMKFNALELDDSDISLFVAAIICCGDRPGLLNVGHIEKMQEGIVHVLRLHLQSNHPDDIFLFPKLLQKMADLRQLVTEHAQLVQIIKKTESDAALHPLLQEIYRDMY

[4] = Ratio of AUC (0 to 24 hrs) in brain to plasma in mouse at 2 mg/kg, iv and 10 mg/kg, po; format: ADME, organism-based; conditions: read-out: BPR
Mus musculus [5] = test: Antialzheimer activity in APPPS1 transgenic C57BL/6J mouse model assessed as decrease in beta-amyloid accumulation in brain at 1 to 10 mg/kg; format: functional, organism-based
Mus musculus [6] = test: Cognitive enhancing effect in APPPS1 transgenic C57BL/6J mouse model at 1 to 10 mg/kg for 60 days by Morris-Water maze assay; format: functional, organism-based

| EC50 [1] | EC50 [2] | EC50 [3] | Kp [4] | EC50 ([1]; cos-7) | SMILES | Activity (Mus musculus [5]) | Activity (Mus musculus [6]) |
| --- | --- | --- | --- | --- | --- | --- | --- |
| 116 nM | 79 nM | 21 nM | – | – | Cc1cc(C2CC2C(OC(=O)c2ccccc2)c2ccc(OC(F)(F)F)cc2)cc(C)c1OC(C)(C)C(=O)O (single isomer, unassigned; diastereomer 1) | – | – |
| – | – | – | 0.37 | 16 nM | COC(c1ccc(OC(F)(F)F)cc1)C1CC1c1cc(C)c(OC(C)(C)C(=O)O)c(C)c1 (single isomer, unassigned; enantiomer 1) | Active | Active |
| 23 nM | 122 nM | 100 nM | – | – | Cc1cc(C2CC2C(OC(=O)c2ccccc2)c2ccc(OC(F)(F)F)cc2)cc(C)c1OC(C)(C)C(=O)O (single isomer, unassigned; diastereomer 2) | – | – |
